Measured values taken from patent US20250186456A1, “PYRIMIDINE-FUSED CYCLIC COMPOUND AND PREPARATION METHOD AND USE THEREOF” (Genfleet Therapeutics (Shanghai) Inc., priority 2021, published 2025).
Like-named read-outs stand apart in the source and are kept apart here.

Tests used:
Format in all cases: cell-based, human
[1] = system: p-ERK in AGS cells (KRAS G12D mutation); experiment: Cell p-ERK assay (HTRF, Advance ERK phospho-T202/Y204 kit); conditions: AGS cells, 3 hours incubation with compound, HTRF, read-out: AGS p-ERK IC50
Outline: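 Phospho-ERK (T202/Y204) measured by HTRF in lysates of human gastric AGS cells carrying KRAS G12D, after 3 h compound exposure at 0.1% DMSO over a 3.16-fold series. Percent inhibition relative to DMSO control and lysis-only blank; four-parameter curve fitting gave IC50.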

AGS cells (KRAS G12D) = experiment: Cell proliferation inhibition assay, 3D, CellTiter-Glo 3D, AGS; conditions: AGS 3D sphere model, 5 days incubation
Outline: (§1)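 Spheroids (800 AsPC-1 or 400 AGS cells/well; RPMI-1640 or F-12K with 10% FBS) formed overnight, then were dosed on day 2 with a 3.16-fold series at 0.1% DMSO. After 5 days, viability was read by CellTiter-Glo 3D luminescence, and IC50 came from four-parameter fits of inhibition versus DMSO control and medium blank.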

[2] = system: AsPC-1 cells (KRAS G12D mutation); experiment: Cell proliferation inhibition assay, 3D, CellTiter-Glo 3D, AsPC-1; conditions: AsPC-1 3D sphere model, 5 days incubation
Outline: as §1

SMILES | IC50 ([1]; Homo sapiens) [nM] | IC50 (AGS cells (KRAS G12D); Homo sapiens, 120 h) [nM] | IC50 ([2]; Homo sapiens, ASPC1, 120 h) [nM] | IC50 [1] [nM] | IC50 (AGS cells (KRAS G12D)) [nM] | IC50 [2] [nM]
C[C@@H]1Oc2nc(-c3cc(N)cc4ccc(F)c(F)c34)c(F)c3nc(OCC45CCCN4CC(F)(F)C5)nc(c23)N2C[C@H]3CC[C@H](N3)[C@@H]12 (stereo partly drawn) [Example Z720, 4-((5S,5aS,6S,9R)-12-((2,2-difluorotetrahydro-1H-pyrrolizin-7a (5H)-yl)methoxy)-1-fluoro-5-methyl-5a,6,7,8,9,10-hexahydro-5H-4-oxa-3,10a, 11,13,14-pentaaza-6,9-methanonaphtho[1,8-ab]heptalene-2-yl)-5,6-difluoronaphthalen-2-amine] | 35.1 | 15.7 | 33.4 | – | – | –
C#Cc1c(F)ccc2cccc(-c3nc4c5c(nc(OCC6(CN7CCC(O)C7)CC6)nc5c3F)N3C[C@H]5CC[C@H](N5)[C@H]3[C@H](C)O4)c12 (stereo partly drawn) [Example Z721] | – | – | – | 37.5 | 43.6 | 105
C#Cc1c(F)ccc2cc(N)cc(-c3nc4c5c(nc(OCC67CCCN6CC(F)(F)C7)nc5c3F)N3C[C@H]5CC[C@H](N5)[C@H]3[C@H](C)O4)c12 (stereo partly drawn) [Example Z722, 4-((5S,5aS,6S,9R)-12-((2,2-difluorotetrahydro-1H-pyrrolizin-7a (5H)-yl)methoxy)-1-fluoro-5-methyl-5a,6,7,8,9,10-hexahydro-5H-4-oxa-3,10a, 11,13,14-pentaaza-6,9-methanonaphtho[1,8-ab]heptalene-2-yl)-5-ethynyl-6-fluoronaphthalen-2-amine] | 7.22 | 12.8 | 9.29 | – | – | –
C#Cc1c(F)ccc2cc(O)cc(-c3nc4c5c(nc(OCC67CCCN6CC(F)(F)C7)nc5c3F)N3C[C@H]5CC[C@H](N5)[C@H]3[C@H](C)O4)c12 (stereo partly drawn) [Example Z723, 4-((5S,5aS,6S,9R)-12-((2,2-difluorotetrahydro-1H-pyrrolizin-7a (5H)-yl)methoxy)-1-fluoro-5-methyl-5a,6,7,8,9,10-hexahydro-5H-4-oxa-3,10a, 11,13,14-pentaaza-6,9-methanonaphtho[1,8-ab]heptalene-2-yl)-5-ethynyl-6-fluoronaphthalen-2-ol] | 6.96 | 15.1 | 55.4 | – | – | –
C#Cc1cccc2cc(N)cc(-c3nc4c5c(nc(OC[C@@H]6CC(F)(F)CN6C)nc5c3F)N3C[C@H]5CC[C@H](N5)[C@H]3[C@H](C)O4)c12 [Example Z724, 4-((5S,5aS,6S,9R)-12-(((S)-4,4-Difluoro-1-Methylpyrrolidin-2-Yl)Methoxy)-1-Fluoro-5-Methyl-5a,6,7,8,9,10-Hexahydro-5H-4-Oxa-3,10a,11,13,14-Pentaaza-6,9-Methanonaphtho[1,8-Ab]Heptalene-2-Yl)-5-Ethynylnaphthalen-2-Amine] | 45.3 | 92 | 196 | – | – | –
C#Cc1cccc2c(F)c(N)cc(-c3nc4c5c(nc(OCC67CCCN6CC(F)(F)C7)nc5c3F)N3C[C@H]5CC[C@H](N5)[C@H]3[C@H](C)O4)c12 (stereo partly drawn) [Example Z725, 4-((5S,5aS,6S,9R)-12-((2,2-difluorotetrahydro-1H-pyrrolizin-7a (5H)-yl)methoxy)-1-fluoro-5-methyl-5a,6,7,8,9,10-hexahydro-5H-4-oxa-3,10a,11,13,14-pentaaza-6,9-methanonaphtho[1,8-ab]heptalen-2-yl)-5-ethynyl-1-fluoronaphthalen-2-amine] | 42.3 | 62.7 | 106 | – | – | –
C#Cc1cccc2nc(N)cc(-c3nc4c5c(nc(OCC67CCCN6CC(F)(F)C7)nc5c3F)N3C[C@H]5CC[C@H](N5)[C@H]3[C@H](C)O4)c12 (stereo partly drawn) [Example Z726, 4-((5S,5aS,6S,9R)-12-((2,2-difluorotetrahydro-1H-pyrrolizin-7a (5H)-yl)methoxy)-1-fluoro-5-methyl-5a,6,7,8,9,10-hexahydro-5H-4-oxa-3,10a, 11,13,14-pentaaza-6,9-methanonaphtho[1,8-ab]heptalene-2-yl)-5-ethynylquinolin-2-amine] | 78.8 | 133 | 638 | – | – | –
C#Cc1cccc2c(F)c(N)cc(-c3nc4c5c(nc(OCC67CC(=C)CN6CC(=C)C7)nc5c3F)N3C[C@H]5CC[C@H](N5)[C@H]3[C@H](C)O4)c12 [Example Z727, 4-((5S,5aS,6S,9R)-12-((2,6-dimethylenetetrahydro-1H-pyrrolizin-7a (5H)-yl)methoxy)-1-fluoro-5-methyl-5a,6,7,8,9,10-hexahydro-5H-4-oxa-3,10a, 11,13,14-pentaaza-6,9-methanonaphtho[1,8-ab]heptalene-2-yl)-5-ethynyl-1-fluoronaphthalen-2-amine] | 5.01 | 9.3 | 12.3 | – | – | –
C#Cc1cccc2c(F)c(N)cc(-c3nc4c5c(nc(OCC67C[C@@H](F)CN6CCC7=C)nc5c3F)N3C[C@H]5CC[C@H](N5)[C@H]3[C@H](C)O4)c12 (stereo partly drawn) [Example Z728, 5-ethynyl-1-fluoro-4-((5S,5aS,6S,9R)-1-fluoro-12-(((6R)-6-fluoro-1-methylenetetrahydro-1H-pyrrolizin-7a (5H)-yl)methoxy)-5-methyl-5a,6,7,8,9,10-hexahydro-5H-4-oxa-3,10a, 11, 13,14-pentaaza-6,9-methanonaphtho[1,8-ab]heptalene-2-yl) naphthalen-2-amine] | 0.95 | 3.75 | 5.41 | – | – | –
CCc1cccc2c(F)c(N)cc(-c3nc4c5c(nc(OCC67CCCN6CC(F)(F)C7)nc5c3F)N3C[C@H]5CC[C@H](N5)[C@H]3[C@H](C)O4)c12 (stereo partly drawn) [Example Z729, 4-((5S,5aS,6S,9R)-12-((2,2-difluorotetrahydro-1H-pyrrolizin-7a (5H)-yl)methoxy)-1-fluoro-5-methyl-5a,6,7,8,9,10-hexahydro-5H-4-oxa-3,10a, 11, 13, 14-pentaaza-6,9-methanonaphtho[1,8-ab]heptalene-2-yl)-5-ethyl-1-fluoronaphthalen-2-amine] | 212 | 584 | 757 | – | – | –
C#Cc1cccc2cc(N)cc(-c3nc4c5c(nc(OCC67C[C@@H](F)CN6CCC7=C)nc5c3F)N3C[C@H]5CC[C@H](N5)[C@H]3[C@H](C)O4)c12 (stereo partly drawn) [Example Z730, 5-ethynyl-4-((5S,5aS,6S,9R)-1-fluoro-12-(((6R)-6-fluoro-1-methylenetetrahydro-1H-pyrrolizin-7a (5H)-yl)methoxy)-S-methyl-5a,6,7,8,9,10-hexahydro-5H-4-oxa-3,10a, 11, 13, 14-pentaaza-6,9-methanonaphtho[1,8-ab]heptalene-2-yl) naphthalen-2-amine] | – | – | – | 0.54 | 1.66 | 3.61
C=C1CCN2C[C@H](F)CC12COc1nc2c3c(nc(-c4cc(N)c(F)c5ccc(F)c(F)c45)c(F)c3n1)O[C@@H](C)[C@@H]1[C@@H]3CC[C@H](CN21)N3 (stereo partly drawn) [Example Z731, 1,5,6-trifluoro-4-((5S, 5aS,6S,9R)-1-fluoro-12-(((6R)-6-fluoro-1-methylenetetrahydro-1H-pyrrolizin-7a (5H)-yl)methoxy)-5-methyl-5a,6,7,8,9,10-hexahydro-5H-4-oxa-3,10a, 11,13,14-pentaaza-6,9-methanonaphtho[1,8-ab]heptalene-2-yl) naphthalen-2-amine] | 1.6 | 5.7 | 15.8 | – | – | –
